Results reported in patent publication US9266830B2, “Pesticidal arylpyrrolidines” (Bayer Intellectual Property GmbH, priority 2007, dated 2016).

These compounds were tested on Boophilus microplus (assay: Boophilus microplus test (injection)). Conditions: application rate 20 μg/animal, adult engorged females, after 7 days.
Type: in vivo
Procedure: Solvent: dimethyl sulfoxide
To produce a suitable preparation of active compound, 10 mg of active compound are dissolved in 0.5 ml solvent, and the concentrate is diluted with solvent to the desired concentration. Five adult engorged female ticks (Boophilus microplus) are injected with compound solution into the abdomen. Ticks are transferred into replica plates and incubated in a climate chamber for a period of time. Egg deposition of fertile eggs is monitored. After 7 days mortality in % is determined 100% means that all eggs are infertile; 0% means that all eggs are fertile.

Row | Compound | activity (100% means that all eggs are infertile) [%]
1 | CC(=O)NC1CCc2cc(N3CCC(c4cc(Cl)c(Cl)c(Cl)c4)(C(F)(F)F)C3)ccc21 (stereo not shown) [6-267] | 100
2 | N#Cc1ccc(N2CCC(c3cc(Cl)c(Cl)c(Cl)c3)(C(F)(F)F)C2)cc1Cl (stereo not shown) [7-13] | 100
3 | CCS(=O)(=O)CC(=O)NCc1ccc(N2CCC(c3cc(Cl)cc(Cl)c3)(C(F)(F)F)C2)cc1C(F)(F)F (stereo not shown) [1-501] | 100
4 | O=C(NCc1ccc(N2CCC(c3cc(Cl)cc(Cl)c3)(C(F)(F)F)C2)cc1C(F)(F)F)NC1CCC1 (stereo not shown) [1-227] | 100
5 | C=CCSCC(=O)NCc1ccc(N2CCC(c3cc(Cl)cc(Cl)c3)(C(F)(F)F)C2)cc1C(F)(F)F (stereo not shown) [1-503] | 100
6 | CC(C)(C)OC(=O)NCc1ccc(N2CCC(c3cc(C(F)(F)F)cc(C(F)(F)F)c3)(C(F)(F)F)C2)cc1C(F)(F)F (stereo not shown) [1-300] | 100
7 | CC(C)C(=O)NCc1ccc(N2CCC(c3cc(Cl)c(Cl)c(Cl)c3)(C(F)(F)F)C2)cc1C(F)(F)F (stereo not shown) [1-329] | 100
8 | CCC(=O)NCc1ccc(N2CCC(c3cc(Cl)c(Cl)c(Cl)c3)(C(F)(F)F)C2)cc1Cl (stereo not shown) [1-338] | 100
9 | CCC(=O)NCc1cnc(N2CCC(c3cc(C(F)(F)F)cc(C(F)(F)F)c3)(C(F)(F)F)C2)nc1C(F)(F)F (stereo not shown) [3-148] | 100
10 | C=CC(=O)NCc1ccc(N2CCC(c3cc(Cl)cc(Cl)c3)(C(F)(F)F)C2)cc1C(F)(F)F (stereo not shown) [1-173] | 100
11 | CCC(=O)NCc1ccc(N2CCC(c3cc(Cl)cc(Cl)c3)(C(F)(F)F)C2)cc1Br (stereo not shown) [1-285] | 100
12 | CC(=O)CC(=O)NCc1ccc(N2CCC(c3cc(C(F)(F)F)cc(C(F)(F)F)c3)(C(F)(F)F)C2)cc1C(F)(F)F (stereo not shown) [1-963] | 100
13 | CC(C)NC(=O)NCc1ccc(N2CCC(c3cc(C(F)(F)F)cc(C(F)(F)F)c3)(C(F)(F)F)C2)cc1C(F)(F)F (stereo not shown) [1-304] | 100
14 | C=CCC(=O)NCc1ccc(N2CCC(c3cc(Cl)cc(Cl)c3)(C(F)(F)F)C2)cc1Cl (stereo not shown) [1-36] | 100
15 | NCc1ccc(N2CCC(c3cc(C(F)(F)F)cc(C(F)(F)F)c3)(C(F)(F)F)C2)cc1C(F)(F)F (stereo not shown) [1-295] | 100
16 | O=C(NCc1ccc(N2CCC(c3cc(Cl)cc(Cl)c3)(C(F)(F)F)C2)cc1Cl)C1CC1 (stereo not shown) [1-4] | 100
17 | N#CCC(=O)NCc1ccc(N2CCC(c3cc(Cl)cc(Cl)c3)(C(F)(F)F)C2)cc1C(F)(F)F (stereo not shown) [1-183] | 100
18 | C#CCNC(=O)NCc1ccc(N2CCC(c3cc(Cl)cc(Cl)c3)(C(F)(F)F)C2)cc1Cl (stereo not shown) [1-88] | 100
19 | CS(=O)(=O)CC(=O)NCc1ccc(N2CCC(c3cc(Cl)cc(Cl)c3)(C(F)(F)F)C2)cc1C(F)(F)F (stereo not shown) [1-495] | 100
20 | CC(C)(C)OC(=O)NC1CCc2cc(N3CCC(c4cc(Cl)c(Cl)c(Cl)c4)(C(F)(F)F)C3)ccc21 (stereo not shown) [6-802] | 100
21 | COCC(=O)NCc1ccc(N2CCC(c3cc(Cl)cc(Cl)c3)(C(F)(F)F)C2)cc1Cl (stereo not shown) [1-40] | 100
22 | C=CCS(=O)(=O)CC(=O)NCc1ccc(N2CCC(c3cc(Cl)cc(Cl)c3)(C(F)(F)F)C2)cc1C(F)(F)F (stereo not shown) [1-505] | 100
23 | COC(=O)NCc1ccc(N2CCC(c3cc(C(F)(F)F)cc(C(F)(F)F)c3)(C(F)(F)F)C2)cc1C(F)(F)F (stereo not shown) [1-298] | 100

Row | Compound | activity (100% means that all eggs are infertile) [%]
24 | O=C(NCC(F)(F)F)c1cnc(N2CCC(c3cc(C(F)(F)F)cc(C(F)(F)F)c3)(C(F)(F)F)C2)nc1C(F)(F)F (stereo not shown) [2-34] | 100
25 | CCCNC(=O)NCc1ccc(N2CCC(c3cc(Cl)cc(Cl)c3)(C(F)(F)F)C2)cc1C(F)(F)F (stereo not shown) [1-222] | 100
26 | CCNC(=O)NCc1cnc(N2CCC(c3cc(C(F)(F)F)cc(C(F)(F)F)c3)(C(F)(F)F)C2)nc1C(F)(F)F (stereo not shown) [3-151] | 100
27 | CC(NC(=O)NCc1ccc(N2CCC(c3cc(Cl)cc(Cl)c3)(C(F)(F)F)C2)cc1Cl)c1nccs1 (stereo not shown) [1-446] | 100
28 | O=C(NCc1ccccn1)NCc1ccc(N2CCC(c3cc(Cl)cc(Cl)c3)(C(F)(F)F)C2)cc1C(F)(F)F (stereo not shown) [1-254] | 100
29 | O=C(NCc1ccc(N2CCC(c3cc(Cl)cc(C(F)(F)F)c3)(C(F)(F)F)C2)cc1C(F)(F)F)C1CC1 (stereo not shown) [1-357] | 100
30 | O=C(CC(F)(F)F)NCc1sc(N2CCC(c3cc(Cl)c(Cl)c(Cl)c3)(C(F)(F)F)C2)nc1C(F)(F)F (stereo not shown) [5-144] | 100
31 | CCNC(=O)NCc1ccc(N2CCC(c3cc(Cl)c(Cl)c(Cl)c3)(C(F)(F)F)C2)cc1Cl (stereo not shown) [1-341] | 100
32 | O=C(CC1CC1)NCc1ccc(N2CCC(c3cc(Cl)cc(Cl)c3)(C(F)(F)F)C2)cc1C(F)(F)F (stereo not shown) [1-155] | 100
33 | O=C(NCc1ccc(N2CCC(c3cc(Cl)cc(Cl)c3)(C(F)(F)F)C2)cc1C(F)(F)F)C1CCC1 (stereo not shown) [1-150] | 100
34 | O=C(CC(F)(F)F)NCc1cnc(N2CCC(c3cc(C(F)(F)F)cc(C(F)(F)F)c3)(C(F)(F)F)C2)nc1C(F)(F)F (stereo not shown) [3-150] | 100
35 | CNC(=O)N(C)Cc1ccc(N2CCC(c3cc(Cl)cc(Cl)c3)(C(F)(F)F)C2)cc1C(F)(F)F (stereo not shown) [1-258] | 100
36 | O=C(CC(F)(F)F)NCc1ccc(N2CCC(c3cc(Cl)c(Cl)c(Cl)c3)(C(F)(F)F)C2)cc1C(F)(F)F (stereo not shown) [1-327] | 100
37 | O=C(NCc1ccc(N2CCC(c3cc(Cl)cc(Cl)c3)(C(F)(F)F)C2)cc1Cl)C(F)F (stereo not shown) [1-21] | 100
38 | C=CCC(=O)NCc1ccc(N2CCC(c3cc(Cl)cc(Cl)c3)(C(F)(F)F)C2)cc1C(F)(F)F (stereo not shown) [1-180] | 100
39 | O=C(CC(F)(F)F)NCc1cnc(N2CCC(c3cc(Cl)c(Cl)c(Cl)c3)(C(F)(F)F)C2)nc1C(F)(F)F (stereo not shown) [3-144] | 100
40 | C=CCSCC(=O)NCc1ccc(N2CCC(c3cc(Cl)c(Cl)c(Cl)c3)(C(F)(F)F)C2)cc1C(F)(F)F (stereo not shown) [1-732] | 100
41 | O=C(NCc1ccc(N2CCC(c3cc(Cl)c(Cl)c(Cl)c3)(C(F)(F)F)C2)cc1Br)C1CC1 (stereo not shown) [1-346] | 100
42 | CSCC(=O)NCc1ccc(N2CCC(c3cc(Cl)c(Cl)c(Cl)c3)(C(F)(F)F)C2)cc1C(F)(F)F (stereo not shown) [1-728] | 100
43 | O=C(CC(F)(F)F)NCc1ccc(N2CCC(c3cc(Cl)cc(Cl)c3)(C(F)(F)F)C2)cc1Cl (stereo not shown) [1-19] | 100
44 | O=C(NCc1ccccn1)c1sc(N2CCC(c3cc(Cl)c(Cl)c(Cl)c3)(C(F)(F)F)C2)nc1C(F)(F)F (stereo not shown) [4-22] | 100
45 | CCNC(=O)NCc1ccc(N2CCC(c3cc(Cl)c(Cl)c(Cl)c3)(C(F)(F)F)C2)cc1C(F)(F)F (stereo not shown) [1-330] | 100
46 | CC(C)(C)OC(=O)NCc1ccc(N2CCC(c3cc(Cl)cc(Cl)c3)(C(F)(F)F)C2)cc1C(F)(F)F (stereo not shown) [1-270] | 100
